Data reported in patent US20260207627A1, “PHYTOECDYSONES FOR USE IN THE TREATMENT OF INFLAMMATORY RESPIRATORY DISEASES” (BIOPHYTIS, priority 2022, published 2026).

Columns and labels:
murine bronchial ring [1] = assay: Ex vivo bronchial ring contraction (Mulvany myograph) after chronic treatment, methacholine-induced bronchoconstriction; assay type: in vivo, mouse; conditions: asthmatic mice
Experimental: (§1) Seven-week old mice were sensitized by cutaneous route to house dust mite (HDM) extracts on DO, 7, 14 and 21. After this skin sensitization phase to the allergen, the mice receive the allergen by the nasal route (challenge phase) on D27, 28, 29, 34, 35 and 36 to induce bronchial exacerbation. This severe allergic asthma model has been characterized as mimicking human pathology (Dilasser et al. Thorax 2021).
(§2) BIG101 (batch RL11T1204A0) was administered to the mice in drinking water 7 days a week, at a dose of 50 mg/kg/day. The drinking water containing BI0101 was replaced twice weekly until the animals were sacrificed.
(§3) The evaluation of the effect of chronic administration of BI0101 treatment on ex vivo murine bronchial ring contraction was carried out in an isolated organ chamber (isometric tension measurement, Mulvany myograph, DMT, Hinnerup, Denmark) (André-Grégoire et al., 2018).
(§4) The bronchi are collected, cleaned, cut into rings and set up in the Mulvany myograph. The rings are pre-stretched and then stimulated with 60 mM KCl until the contractile response amplitude has stabilized (2 or 3 stimulations) before the start of each experimental protocol. […]

murine bronchial ring [2] = assay: Ex vivo bronchial ring contraction (Mulvany myograph) after chronic treatment, serotonin-induced bronchoconstriction; assay type: in vivo, mouse; conditions: asthmatic mice
Experimental: as §1, §2, §3, §4

bronchial ring [3] = assay: Acute administration in the vessel containing the bronchial ring, contractile response to methacholine; design: species or system mouse; conditions: p=ns vs internal control without BI0101
bronchial ring [4] = assay: Acute administration in the vessel containing the bronchial ring, contractile response to serotonin; design: species or system mouse; conditions: p=ns vs internal control without BI0101
5-HT1A receptor = assay: Real-time PCR gene expression in bronchi after chronic treatment; assay type: in vivo, mouse; conditions: chronic treatment 50 mg/kg/day, D38, p<0.05
Experimental: (§5) Seven-week old mice were sensitized by cutaneous route to house dust mite (HDM) extracts on DO, 7, 14 and 21. After this skin sensitization phase to the allergen, the mice receive the allergen by the nasal route (challenge phase) on D27, 28, 29, 34, 35 and 36 to induce bronchial exacerbation. This severe allergic asthma model has been characterized as mimicking human pathology ([…] et al. Thorax 2021). BIG101 (batch RL11T1204A0) was administered to the mice in drinking water 7 days a week, at a dose of 50 mg/kg/day. The drinking water containing BI0101 was replaced twice weekly until the animals were sacrificed. On […], the bronchi of healthy non-asthmatic mice (control; n=10), non-asthmatic control mice treated with BI0101 (controls+BIO101; n=10), asthmatic mice (Asthma; n=10) and asthmatic mice treated with BI0101 (Asthma+BIO101; n=10) were collected. After RNA extraction from these tissues (Trizol©, ThermoFisher cat. 15596018), an analysis of serotonin receptor (5-HT1A, 5-HT1B, 5-HT2A, 5-HT2B and 5-HT7) and serotonin transporter (5HTT) expression was evaluated with real-time PCR (TaqManTM, Universal PCR MasterMix, ThermoFisher cat. 4304437). The list of ThermoFisher Scientific commercial test references used for real-time PCR to obtain the results for each of the genes is given in Table 1 below: […]

5-HT1B = assay: as above; assay type: in vivo, mouse; conditions: healthy or asthmatic mice, chronic treatment 50 mg/kg/day
Experimental: as §5

5-HT2A = assay: as above; assay type: in vivo, mouse; conditions: healthy or asthmatic mice, chronic treatment 50 mg/kg/day
Experimental: as §5

5-HT2B = assay: as above; assay type: in vivo, mouse; conditions: healthy or asthmatic mice, chronic treatment 50 mg/kg/day
Experimental: as §5

5-HT7 = assay: as above; assay type: in vivo, mouse; conditions: healthy or asthmatic mice, chronic treatment 50 mg/kg/day
Experimental: as §5

5-HTT = assay: as above; assay type: in vivo, mouse; conditions: healthy or asthmatic mice, chronic treatment 50 mg/kg/day
Experimental: as §1, with “([…]” for “(Dilasser”, “2021). BIG101 (batch RL11T1204A0) was administered to the mice in drinking water 7 days a week, at a dose of 50 mg/kg/day. The drinking water containing BI0101 was replaced twice weekly until the animals were sacrificed.” for “2021).”

[5] = tested on: mouse model of severe allergic asthma; assay: Histological analysis of lung sections stained with hematoxylin and eosin; assay type: in vivo; conditions: chronic treatment 50 mg/kg/day
Experimental: as §1, §2

[6] = tested on: mouse model of severe allergic asthma; assay: Bronchoalveolar fluid cellularity; assay type: in vivo
Experimental: Seven-week old mice were sensitized by cutaneous route to house dust mite (HDM) extracts on DO, 7, 14 and 21. After this skin sensitization phase to the allergen, the mice receive the allergen by the nasal route (challenge phase) on D27, 28, 29, 34, 35 and 36 to induce bronchial exacerbation. This severe allergic asthma model has been characterized as mimicking human pathology ([…] et al. Thorax 2021). BIG101 (batch RL11T1204A0) was administered to the mice in drinking water 7 days a week, at a dose of 50 mg/kg/day. The drinking water containing BI0101 was replaced twice weekly until the animals were sacrificed. On […], sterile PBS (between 200 μL and 1 mL) was administered by the intratracheal route to the mice using a catheter. The bronchoalveolar fluid (BALF) cells and supernatant are retrieved and separated by centrifugation. The total number of cells was counted on Kova slides by optical microscopy. The cellularity of each sample was evaluated by calculating the ratio of the total number of cells counted, divided by the volume of bronchoalveolar fluid. The cellularity represents the infiltrate of immune cells (macrophages, lymphocytes, eosinophils and neutrophils).

[7] = tested on: mouse model of severe allergic asthma; assay: Respiratory function by plethysmography (Penh) in response to methacholine; assay type: in vivo
Experimental: as §1, §2
In order to study whether the reduction of inflammation in BALF could induce functional improvement after severe asthma induction, respiratory function was evaluated by plethysmography. This technique makes it possible to carry out a longitudinal study of respiratory capacity and also expiratory pause time (Penh) non-invasively. Breathing-induced flow and pressure changes are measured before and after exposure to nebulization with increasing doses of NaCl followed by methacholine. […]
The pressure variations measured relative to a reference chamber make it possible to define various respiratory parameters such as inspiratory and expiratory pressure peaks and times, and also a unitless parameter referred to as Penh (enhanced Pause) which makes it possible to evaluate bronchoconstriction. Indeed, the Penh value, calculated from the pressure signal in the chamber (Pb), is an important index to obtain, because changes in the Penh value evolve in parallel with those of respiratory resistance and therefore it represents a predictive parameter of changes in resistive properties of the respiratory system (Hamelmann et al., 1997; Bergren, 2001; Onclinx et al., 2003). The following values were calculated from the filtered Pb: the maximum change in Pb during expiration (PEP for “Peak Expiratory Pressure”), the maximum change in Pb during inspiration (PIP for “Peak Inspiratory Pressure”), and the time interval (TR). The Penh value was then calculated as follows: […]

[8] = chronic treatment 50 mg/kg/day in drinking water, D38, Asthma vs Asthma+BIO101 p<0.0001

Structure (SMILES): CC(C)(O)CC[C@@H](O)[C@](C)(O)[C@H]1CC[C@@]2(O)C3=CC(=O)[C@@H]4C[C@@H](O)[C@@H](O)C[C@]4(C)[C@H]3CC[C@]12C [BI0101, 20-hydroxyecdysone]
- methacholine-induced bronchoconstriction (murine bronchial ring [1]; [8]): significantly decreases
- prevention of exacerbated bronchial airway reactivity (methacholine) (murine bronchial ring [1]; chronic treatment 50 mg/kg/day, Asthma+BIO101 vs Control p=0.0025): does not prevent
- serotonin-induced bronchoconstriction (murine bronchial ring [2]; [8]): significantly reduces
- prevention of exacerbated bronchial airway reactivity (serotonin) (murine bronchial ring [2]; chronic treatment 50 mg/kg/day, Asthma+BIO101 vs Control p=0.9997): completely prevents
- contractile response to methacholine (bronchial ring [3]): 0.41±0.25 mN
- contractile response to serotonin (bronchial ring [4]): 0.29±0.14 mN
- 5-HT1A receptor gene expression decrease in bronchi (5-HT1A receptor; asthmatic mice (asthma+BIO101)): −69±3%
- 5-HT1A receptor gene expression decrease in bronchi (5-HT1A receptor; healthy mice (control+BIO101)): −49%±12%
- 5-HT1B gene expression in bronchi (5-HT1B): does not induce any modification
- 5-HT2A gene expression in bronchi (5-HT2A): does not induce any modification
- 5-HT2B gene expression in bronchi (5-HT2B): does not induce any modification
- 5-HT7 gene expression in bronchi (5-HT7): does not induce any modification
- 5-HTT (serotonin transporter) gene expression in bronchi (5-HTT): does not induce any modification
- increase in bronchial muscle mass and epithelial barrier dysfunction associated with severe asthma ([5]; asthmatic mice): appear to be less substantial
- peribronchial and perivascular inflammation ([5]; asthmatic mice): reduces
- effect on lung histology ([5]; healthy mice (control)): has no effect
- change of BALF cellularity (inflammation present in BALFs) ([6]; asthmatic mice treated with BI0101 vs asthmatic mice, D38, p=ns): −39.8%
- BALF cellularity (total number of cells divided by volume of bronchoalveolar fluid) ([6]; control mice treated with BI0101, D38, p=ns vs untreated control): 260±64
- Penh value ([7]; asthmatic mice treated with BI0101, 50 mg/kg/day, 40 mg/ml of methacholine): 9.81±1.1
- reduction of the Penh value ([7]; asthmatic mice treated with BI0101 vs asthmatic mice, 40 mg/ml of methacholine, p<0.05): 18.1%
- effect on respiratory function (Penh, methacholine aerosol) ([7]; healthy control mice treated with BI0101): does not appear to have an effect
